Article PMC10999543, “Identification of kinase modulators as host-directed therapeutics against intracellular methicillin-resistant Staphylococcus aureus” (Frontiers in Cellular and Infection Microbiology, 2024)
Where two headings read alike, the source gives them in different places.

Legend:
intracellular MRSA = assay type: cell-based, Staphylococcus aureus; settings: for %GFP+ rep 1 / z-scoreMRSA+ rep 1: replicate 1; for %GFP+ rep 2 / z-scoreMRSA+ rep 2: replicate 2; for %GFP+ rep 3 / z-scoreMRSA+ rep 3: replicate 3; for z-scoreMRSA+ mean / z-scoreMRSA+ rep 1 / z-scoreMRSA+ rep 2 / z-scoreMRSA+ rep 3 / hit / effect: PKIS compound screen; for z-scoreMRSA+ mean: mean of 3 replicates; for hit: Yes/No call (effect without cell death)
Experimental: (§1) The cells were resuspended in cell culture medium without antibiotics, seeded with 10,000 cells/well into Costar flat-bottom 96-well plates (Corning, Amsterdam, the Netherlands), and were incubated overnight at 37°C/5% CO2. The next day, the bacteria were centrifuged at ≥1800 g for 15 min and resuspended in cold PBS + 5 mM ethylenediaminetetraacetic acid (EDTA). The number of CFUs present in the bacterial suspension was estimated from the optical density at 600 nm (OD600) by assuming 8x10^8 CFUs to be present in a bacterial suspension with OD600 = 1, based on prior titrations. The bacterial suspension was diluted in cell culture medium without antibiotics and added to the cells. Accuracy of the multiplicity of infection (MOI) was validated by plating serial dilutions of the MRSA inoculums on Difco TS agar plates (BD Biosciences). The calculated mean MOI throughout all experiments was 6.8 ± 4.6 (mean ± SD). Infected cells were centrifuged for 3 min at 150 g and incubated for 1 hour at 37°C/5% CO2. Next, the cells were incubated with fresh cell culture medium supplemented with 30 µg/ml gentamicin sulphate (Lonza BioWhittaker, Basel, Switzerland) for 15 min at 37°C/5% CO2 to kill residual extracellular bacteria. Infected cells were incubated overnight at 37°C/5% CO2 in cell culture medium in the presence of kinase inhibitors and 5 µg/ml gentamicin sulphate-containing medium to prevent the growth of extracellular bacteria. The solvent of the compounds, DMSO, was used at equal % v/v as a negative control. For the screen, each compound was tested in triplicate, on separate cell culture plates, resulting in triplicate values for each kinase inhibitor.
(§2) HeLa cells were harvested by trypsinization and fixed with 1% paraformaldehyde. Samples were measured on a FACSLyric with HTS extension (BD Biosciences). Flow cytometry data were analysed using FlowJo version 10 (TreeStar, Ashland, OR, USA). HeLa cells positive for GFP were gated to calculate the percentage of MRSA-infected cells. The cell count was used as surrogate readout of cell viability.
To identify potential “hit” compounds, the flow cytometry data were used to calculate standard z-scores using z = (x-μ)/σ – zneg, where x is total event count or the percent of GFP-positive cells from a single well, μ is the mean from wells of the plate, σ is the standard deviation of the plate and zneg is the mean z-score of the negative control of the plate (i.e., DMSO) ([Korbee et al., 2018]). To minimize the possibility that the presence of extreme values on a plate affected the z-scores, raw values that deviated two-fold from the negative controls were excluded when calculating plate means and standard deviations as used in the aforementioned formula. Compounds were considered a “hit” when z-scoreMRSA+ ≤ -2 and z-scoreHeLa ≥ -3 for cell count. In cases where compounds were screened twice, the average values were used to select hit compounds.

HeLa cells = experiment: Compound screen by flow cytometry: HeLa cell count as surrogate readout of cell viability (z-scoreHeLa); assay type: cell-based, human; settings: for cell count rep 1 / z-scoreHeLa rep 1: replicate 1; for cell count rep 2 / z-scoreHeLa rep 2: replicate 2; for cell count rep 3 / z-scoreHeLa rep 3: replicate 3; for z-scoreHeLa mean / z-scoreHeLa rep 1 / z-scoreHeLa rep 2 / z-scoreHeLa rep 3 / cell death: PKIS compound screen; for z-scoreHeLa mean: mean of 3 replicates
Experimental: as §1, §2
To minimize the possibility that the presence of extreme values on a plate affected the z-scores, raw values that deviated two-fold from the negative controls were excluded when calculating plate means and standard deviations as used in the aforementioned formula. Compounds were considered a “hit” when z-scoreMRSA+ ≤ -2 and z-scoreHeLa ≥ -3 for cell count. In cases where compounds were screened twice, the average values were used to select hit compounds.

[1] = PKIS compound screen raw data, MRSA-infected HeLa cells
[2] = PKIS compound screen raw data, HeLa cell count
[3] = PKIS compounds raw data, MRSA-infected HeLa cells
[4] = PKIS compounds raw data, HeLa cell count

| SMILES | %GFP+ rep 1 (intracellular MRSA; [1]) [%] | %GFP+ rep 2 (intracellular MRSA; [1]) [%] | %GFP+ rep 3 (intracellular MRSA; [1]) [%] | z-scoreMRSA+ mean (intracellular MRSA; MRSA-infected HeLa cells) | z-scoreMRSA+ rep 1 (intracellular MRSA; MRSA-infected HeLa cells) | z-scoreMRSA+ rep 2 (intracellular MRSA; MRSA-infected HeLa cells) | z-scoreMRSA+ rep 3 (intracellular MRSA; MRSA-infected HeLa cells) | hit (intracellular MRSA) | effect (intracellular MRSA; Yes/No call on z-scoreMRSA+) | cell count rep 1 (HeLa cells; [2]) | cell count rep 2 (HeLa cells; [2]) | cell count rep 3 (HeLa cells; [2]) | z-scoreHeLa mean (HeLa cells; HeLa cell count) | z-scoreHeLa rep 1 (HeLa cells; HeLa cell count) | z-scoreHeLa rep 2 (HeLa cells; HeLa cell count) | z-scoreHeLa rep 3 (HeLa cells; HeLa cell count) | cell death (HeLa cells; Yes/No call on z-scoreHeLa) | effect (intracellular MRSA; Yes/No call) | z-scoreMRSA+ mean (intracellular MRSA) | z-scoreMRSA+ rep 1 (intracellular MRSA) | other results |
| --- | --- | --- | --- | --- | --- | --- | --- | --- | --- | --- | --- | --- | --- | --- | --- | --- | --- | --- | --- | --- | --- |
| Cc1c(Cn2ccn3c(=O)cc(N4CCOCC4)nc23)cccc1C(F)(F)F [GSK2289044B] | 13.5 | 15.4 | 14.7 | -1.29 | -1.38 | -0.94 | -1.55 | No | No | 23358 | 26653 | 34666 | -0.65 | 0.49 | -1.52 | -0.93 | No |  |  |  |  |
| COC(=O)c1cccc(NC(=O)NC2CCN(c3ccnc(NCc4ccc(F)cc4)n3)CC2)c1 [GSK1379860A] | 17.4 | 15.1 | 20.5 | -0.58 | -0.37 | -1.18 | -0.20 | No | No | 26314 | 10320 | 10213 | -1.64 | -0.66 | -2.56 | -1.70 | No | No | 0.11 | 0.51 | z-scoreMRSA+ rep 2 (intracellular MRSA): -0.14; z-scoreMRSA+ rep 3 (intracellular MRSA): -0.03; %GFP+ rep 1 (intracellular MRSA; [3]): 29.7%; %GFP+ rep 2 (intracellular MRSA; [3]): 25.3%; %GFP+ rep 3 (intracellular MRSA; [3]): 27.1%; cell death (HeLa cells; Yes/No call): No; z-scoreHeLa mean (HeLa cells): -1.76; z-scoreHeLa rep 1 (HeLa cells): -1.69; z-scoreHeLa rep 2 (HeLa cells): -2.71; z-scoreHeLa rep 3 (HeLa cells): -0.89; cell count rep 1 (HeLa cells; [4]): 3229; cell count rep 2 (HeLa cells; [4]): 1923; cell count rep 3 (HeLa cells; [4]): 4200 |
| Nc1ncc(-c2cccnc2)c2scc(-c3ccc4c(c3)CCN4C(=O)Cc3ccccc3)c12 [GSK683281A] | 18.3 | 19.8 | 19.8 | 0.18 | 0.14 | 0.38 | 0.00377 | No | No | 22126 | 22399 | 35639 | -0.93 | 0.30 | -2.31 | -0.78 | No | No | 0.38 | 0.20 | z-scoreMRSA+ rep 2 (intracellular MRSA): 0.70; z-scoreMRSA+ rep 3 (intracellular MRSA): 0.25; %GFP+ rep 1 (intracellular MRSA; [3]): 28.1%; %GFP+ rep 2 (intracellular MRSA; [3]): 29.7%; %GFP+ rep 3 (intracellular MRSA; [3]): 28.6%; cell death (HeLa cells; Yes/No call): No; z-scoreHeLa mean (HeLa cells): 0.13; z-scoreHeLa rep 1 (HeLa cells): 0.36; z-scoreHeLa rep 2 (HeLa cells): 0.0122; z-scoreHeLa rep 3 (HeLa cells): 0.0253; cell count rep 1 (HeLa cells; [4]): 6640; cell count rep 2 (HeLa cells; [4]): 6026; cell count rep 3 (HeLa cells; [4]): 5637 |
| CCS(=O)(=O)c1ccc(OC)c(Nc2nccc(N(C)c3ccc4c(C)n[nH]c4c3)n2)c1 [GW654652C] | 13.7 | 14.6 | 13.9 | -1.43 | -1.32 | -1.18 | -1.79 | No | No | 21654 | 25320 | 35112 | -0.80 | 0.23 | -1.77 | -0.86 | No |  |  |  |  |
| COc1cc(Nc2nccc(N3CCC(NC(=O)c4cc5ccccc5s4)C3)n2)cc(OC)c1OC (centres unmarked) [GSK1379760A] | 16.3 | 17.7 | 19.1 | -0.32 | -0.49 | -0.25 | -0.21 | No | No | 31010 | 36298 | 43524 | 0.80 | 1.65 | 0.28 | 0.48 | No |  |  |  |  |
| COc1ccc(CNC(=O)NC2CCN(c3ccnc(Nc4ccc(OC)cc4)n3)C2)cc1 (centres unmarked) [GSK1379727A] |  |  |  |  |  |  |  | No |  |  |  |  |  |  |  |  |  | No | 1.14 | 0.96 | z-scoreMRSA+ rep 2 (intracellular MRSA): 1.05; z-scoreMRSA+ rep 3 (intracellular MRSA): 1.40; %GFP+ rep 1 (intracellular MRSA; [3]): 32.0%; %GFP+ rep 2 (intracellular MRSA; [3]): 31.5%; %GFP+ rep 3 (intracellular MRSA; [3]): 34.8%; cell death (HeLa cells; Yes/No call): No; z-scoreHeLa mean (HeLa cells): 0.68; z-scoreHeLa rep 1 (HeLa cells): 0.99; z-scoreHeLa rep 2 (HeLa cells): 0.43; z-scoreHeLa rep 3 (HeLa cells): 0.62; cell count rep 1 (HeLa cells; [4]): 7697; cell count rep 2 (HeLa cells; [4]): 6658; cell count rep 3 (HeLa cells; [4]): 6574 |
